Converted amounts (≈) assume the structure as drawn. “And” between values parts separate entries of the source, which are not always exact repeats. Equal values may be shown once. Read-outs that look alike come from different tables or passages of the source.
What was measured:
[1] = test system: Staphylococcus aureus strain UAMS-1; experiment: Antimicrobial susceptibility testing (MIC, broth microdilution); assay type: cell-based; details: S. aureus UAMS-1, Mueller Hinton broth, 37° C.
Method in brief: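 Broth microdilution in Mueller Hinton broth, 37 °C for 18 h, with about 1×10^5 CFU of strain UAMS-1 per well and doubling compound concentrations from 0 to 256 μg mL−1. The endpoint was the lowest concentration without visible growth. Wells at or above that level were plated and counted for bactericidal activity.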

RnpA = biological target: T1, RnpA (Staphylococcus aureus, UniProt P0A0H5); experiment: RnpA mRNA degradation activity assay; assay type: biochemical; details: RnpA mRNA degradation, gel densitometry; read-out: RnpA IC50
T1 sequence (P0A0H5 1-117): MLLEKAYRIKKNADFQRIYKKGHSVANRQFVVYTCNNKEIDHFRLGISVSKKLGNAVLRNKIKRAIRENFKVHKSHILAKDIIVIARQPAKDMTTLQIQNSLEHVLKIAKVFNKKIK
Method in brief: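 Total S. aureus RNA (1 μg) or in vitro transcribed spa mRNA (1 pmol) was incubated with 20 pmol RnpA plus compound for 15–30 min at 37° C in 50 mM Tris-HCl pH 8.0, 2 mM NaCl, 2 mM MgCl2. RNA was resolved on denaturing formaldehyde-agarose gels and quantified by densitometry. Percent inhibition is relative to RNA-alone and RnpA+DMSO controls.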

[2] = biological target: T2, S. aureus RNase P (RnpA+rnpB) (Staphylococcus aureus, UniProt P0A0H5); experiment: RNase P activity assay (precursor tRNA processing); assay type: biochemical
T2 sequence (P0A0H5 1-117): T1 sequence (P0A0H5 1-117)
Method in brief: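 Reconstituted RnpA+rnpB (1.25 pmol) processed 10 pmol heat-denatured ptRNATyr for 15 min at 37 °C in low-salt (5 mM MgCl2) or high-salt (100 mM MgCl2, 800 mM NH4Cl) Tris pH 8.0 buffer with inhibitor or DMSO. Mature tRNATyr quantified by urea-PAGE densitometry, expressed as % of DMSO control.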

S. aureus strain UAMS-1 = experiment: Fractional Inhibitory Concentration testing with mupirocin; assay type: cell-based; details: combined with mupirocin, S. aureus UAMS-1, Mueller Hinton broth, 18 hours; synergistic FIC≤0.5
Procedure: The RNase P inhibitors described herein were tested for Fractional Inhibitory Concentration (FIC) in the presence of mupirocin. FIC testing was performed to determine the combined effects of mupirocin and the RnpA inhibitors as described herein. Individual wells of a 96-well microtiter plate were inoculated with 1×10^5 CFU of S. aureus strain UAMS-1 in a Mueller Hinton broth. Each row of the plate contained increasing concentrations of RNPA1000 or RNPA2000 (two-fold increments; 0, 0.004, 0.008, 0.016, 0.03, 0.06, 0.125, 0.25, 0.5, 1, 2, or 4×MIC), whereas each column contained increasing concentrations of the indicated antibiotic (two-fold increments; 0, 0.06, 0.125, 0.25, 0.5, 1, 2, or 4×MIC). Plates were incubated for 18 hours at 37° C., and growth was detected by the unaided eye. The FIC was determined using the following formula: (MIC of Drug A in Combination/MIC of Drug A Alone)+(MIC of Drug B in Combination/MIC of Drug B Alone)=FIC. A synergistic interaction was defined as an FIC value≤0.5, no interaction as an FIC of 0.5-4, or an antagonistic interaction FIC>4.

[3] = test system: RNase P-mediated tRNA processing; experiment: Precursor tRNA processing within bacterial cells (FIG. 1, Panel B); assay type: cell-based
Text: Mupirocin is a generically available antibiotic that inhibits isoleucyl tRNA synthetase in bacterial cells. The enzyme charges tRNA molecules, allowing them to participate in protein translation. RnpA is an enzyme, which together with the ribozyme, rnpB, forms RNase P riboprotein complex that prepares precursor tRNA molecules for charging (it works upstream of tRNA synthetase in the tRNA processing pathway).

Staphylococcus aureus = experiment: Antimicrobial activity of ointment / petroleum jelly suspensions (FIG. 2, Panel A); assay type: cell-based; details: subinhibitory concentration in petroleum jelly, S. aureus
Text: The addition of an RnpA inhibitor, such as RNPA2000, to mupirocin ointment (Teva Pharmaceuticals USA (North Wales, Pa.)) improved the antimicrobial efficacy of the ointment and is also effective against mupirocin resistant S. aureus. […] See FIG. 2, Panel A, upper left picture. […] See FIG. 2, Panel A, upper right picture.

CC(C)c1ccc(OCC(=O)NNC(=S)NC(=O)c2ccco2)cc1 [RNPA2000]
MIC ([1]; 18 hours, listed as MC-220000): 8 µg/mL (≈ 22.1 µM)
MIC ([1]; Staphylococcus aureus, UAMS1, 18 h, read-out: MIC): 16 µg/mL (≈ 44.3 µM)
IC50 (RnpA): 275 µM and 180 µM
precursor tRNA processing in vitro ([2]; FIG. 1, Panel A): inhibits precursor tRNA processing
IC50 ([2]; ptRNATyr processing, gel densitometry, read-out: RNase P IC50): 140 µM and 300 µM
FIC with Mupirocin (S. aureus strain UAMS-1): 0.44
precursor tRNA processing within bacterial cells [3]: inhibits precursor tRNA processing
antimicrobial properties in petroleum jelly (Staphylococcus aureus): no antimicrobial properties
